Measured values from patent US12617779B2, “Self degradation-type CDK9 inhibitor prodrug and liposome encapsulating same” (Sumitomo Pharma Co., Ltd., priority 2021, dated 2026).
Blank lines part the entries; values can stand above or below the compound they belong to.

Columns and labels:
[1] = Liposome encapsulation test, remote loading method (Experimental Example 4); assay type: physicochemical;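 for Encapsulation efficiency: encapsulated compound as percent of compound amount introduced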;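 for Encapsulation rate: encapsulated compound as percent of compound in liposome solution after insolubles removed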
Procedure: For Example 1, Example 2, Example 3, Example 4, Example 5, Example 6, Example 7, Example 8, Example 9, Example 10, Example 11, Example 12, Example 13, Example 14, Example 15, Example 16, Example 17 and Alvocidib, an encapsulation test in liposomes was performed using a remote loading method.
<Liposome Encapsulation Test of Example 1, Example 2, Example 5, Example 6, Example 9, Example 10, Example 11, Example 12, Example 13, Example 14, Example 15, and Example 16>
(§1) Hydrogenated soybean phosphatidylcholine (COATSOME NC-21E, manufactured by NOF CORPORATION, 7.77 g), cholesterol (manufactured by Sigma, 2.78 g) and distearoylphosphatidylethanolamine-methoxypolyethylene glycol 2000 (SUNBRIGHT DSPE-020CN, manufactured by NOF CORPORATION, 2.47 g) were dissolved in tert-butyl alcohol (720 mL) warmed to 65° C. The solution was placed in an eggplant flask and frozen in a dry ice-acetone bath, and then the tert-butyl alcohol was removed by evaporation under reduced pressure to give a lipid mixture.
To the above lipid mixture was added a 250 mM ammonium sulfate solution (240 mL), and the mixture was warmed to 65° C., and dispersed by a homogenizer (ULTRA-TURRAX, manufactured by IKA) to give a crude liposome dispersion. Then, the crude liposome dispersion was dispersed by a high pressure homogenizer (Nano-Mizer NM2, manufactured by YOSHIDA KIKAI CO., LTD.) at a pressure of 100 MPa to give liposomes with an average particle size (Z-average) of about 80 nm. The liposome outer solution was replaced with 10 mM L-histidine/10% sucrose solution (pH 6.5) using a dialysis cassette (Slide-A-Lyzer G2 Dialysis Cassettes 20K MWCO, manufactured by Thermo Scientific) to give an empty liposome solution. The solution was filtered through a 0.22 μm membrane filter, and a 10 mM L-histidine/10% sucrose solution (pH 6.5) was added thereto to adjust the total lipid concentration to 50 mM (50 μmol/mL). The lipid concentration was determined by quantitatively analyzing cholesterol using HPLC and calculating the total lipid concentration from the lipid mixing ratio. The amount for the above adjustment was increased or decreased as appropriate.
The compound (10 mg) was weighed, and the empty liposome solution (1 mL) with a total lipid concentration of 50 mM was added thereto. The solution was adjusted to pH 5 to 6 with 1 mol/L hydrochloric acid or 1 mol/L aqueous sodium hydroxide solution as necessary, warmed in a 65° C. water bath for 2 to 3 minutes, and ice-cooled. The mixture was centrifuged at 15,000×g for 5 minutes to precipitate and remove insoluble substances.
The liposome solution (100 μL) after removing insoluble substances was taken on an ultrafiltration filter (Amicon Ultra, 100K, 0.5 mL, manufactured by Merck) and centrifuged at 4° C., 15,000×g for 10 minutes. The compound concentrations in the liposome solution after removing insoluble substances and in the filtrate after ultrafiltration were determined by HPLC, and the encapsulation rate, encapsulation efficiency, and encapsulated compound content per 50 μmol of lipid were calculated by the following formula.
The measurement conditions for HPLC are as follows.
An empty liposome solution with a total lipid concentration of 75 mM was prepared by the same procedure as for the above example compound group. Each compound was weighed, and the empty liposome solution with a total lipid concentration of 75 mM was added thereto such that the compound concentration became 15 mg/mL. The solution was adjusted to pH 5 to 6 with 1 mol/L hydrochloric acid or 1 mol/L aqueous sodium hydroxide solution, warmed in a 65° C. water bath for 3 minutes, and ice-cooled. Hereafter, the encapsulation rate and encapsulation efficiency were calculated by the same procedure as for the above example compound group. The encapsulated compound content per 50 μmol of lipid was calculated by the following formula.
[formula] <Liposome Encapsulation Test of Example 7, Example 8 and Example 17> […]

[2] = mice, 2.5 mg/kg administration; cited from earlier work
[3] = Evaluation of conversion rate to active form in BALB/c mouse plasma (Experimental Example 3); assay type: in vitro ADME; conditions: BALB/c, mouse, 0.2 μmol/L
Procedure: (§2) For Example 1, Example 2, Example 3, Example 4, Example 5, Example 6, Comparative Example 3, Comparative Example 4, Comparative Example 6, Comparative Example 7, Comparative Example 8, Comparative Example 9, Comparative Example 10 and Comparative Example 12, the attrition rate of the test compound and the conversion rate of the test compound to Alvocidib in human plasma and BALB/c mouse plasma were calculated by the following method.
(§3) The test compound was added to human plasma or BALB/c mouse plasma at a concentration of 0.2 μmol/L, and incubated at 37° C. The peak areas of the test compound and Alvocidib in the sample were determined by LC-MS/MS after 0, 30 and 60 minutes for Example 1, Example 2, Example 3, Example 4, Example 5 and Example 6, and after 0, 60 and 120 minutes for Comparative Example 3, Comparative Example 4, Comparative Example 6, Comparative Example 7, Comparative Example 8, Comparative Example 9, Comparative Example 10 and Comparative Example 12, and the attrition rate of the test compound and the conversion rate of the test compound to Alvocidib were calculated by the following formula. Attrition rate of test compound (%):(peak area of test compound in sample/peak area of test compound in sample after 0 minute)×100 Conversion rate to Alvocidib (%):(peak area of Alvocidib in sample/peak area of Alvocidib in reaction solution containing 0.2 μmol/L Alvocidib)×100
(§4) The measurement conditions for LC-MS/MS are as follows. • HPLC: Prominence system (Shimadzu Corporation) • MS/MS: • Example 1, Example 2, Example 3, Example 4, Example 5, Example 6, Comparative Example 8 (mouse), Comparative Example 10 (mouse) and Comparative Example 12 (mouse) • QTRAP5500 (SCIEX) • Comparative Example 6, Comparative Example 7, Comparative Example 8 (human), Comparative Example 9, Comparative Example 10 (human) and Comparative Example 12 (human) • 4000 QTRAP (SCIEX) • column: • other than Example 3 and Example 4 • Cadenza CD-C18, 3 μm, 50×2 mm (Imtakt Corporation) • Example 3 and Example 4 • Kinetex C8, 2.6 μm, 50×2.1 mm (Phenomenex) • column temperature: 40° C. • mobile phase: • A: water containing 0.1% formic acid • B: acetonitrile containing 0.1% formic acid • A/B (min): • Example 1, Example 2, Example 5, Example 6, Comparative Example 8 (mouse), Comparative Example 10 (mouse) and Comparative Example 12 (mouse) • 90/10(0)→40/60(5.0)→10/90(5.1)→10/90(6.5)→90/10(6.6)→90/10(8.0) • Example 3 and Example 4 • 86/14(0)→86/14(3.5)→10/90(5.5)→10/90(6.5)→86/14(6.6)→86/14(9.5) • Comparative Example 6, Comparative Example 7, Comparative Example 8 (human), Comparative Example 9, Comparative Example 10 (human) and Comparative Example 12 (human) • 90/10(0)→10/90(2.5)→10/90(3.5)→90/10(3.6)→90/10(5.0) • flow rate: 0.4 mL/min • detection: ESI (positive mode) • injection: 1 to 5 μL

[4] = Evaluation of conversion rate to active form in human plasma (Experimental Example 3); assay type: in vitro ADME; conditions: human, 0.2 μmol/L
Procedure: as §2, §3, §4

[5] = Evaluation of conversion rate to active form in buffer solution (Experimental Example 1); assay type: physicochemical
Method in brief: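 Prodrugs were held at 25 umol/L and 37° C in 50 mM citrate (pH 5.0, 5.5) or 50 mM phosphate (pH 6.0–7.4) buffer. Parent remaining and Alvocidib formed were quantified by HPLC at 0, 0.5, 1, 2 and 3 hours.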

[6] = Pharmacokinetic test, intravenous solution and liposome formulations in mice (Experimental Example 6); assay type: in vivo; conditions: female BALB/c mice
Procedure: This was used as a solution formulation.
This was used as a liposome formulation.
as §1, with “3.238” for “7.77”, “1.160” for “2.78”, “1,2-disteroyl-rac-glycero-3-methylpolyoxyethylen” for “distearoylphosphatidylethanolamine-methoxypolyethylene glycol”, “GS-020,” for “DSPE-020CN,”, “0.983” for “2.47”, “(300” for “(720”
To the above lipid mixture was added to a 250 mM ammonium sulfate solution (100 mL), and the mixture was warmed to 65° C., and dispersed by a homogenizer (ULTRA-TURRAX, manufactured by IKA) to give a crude liposome dispersion. […] The solution was filtered through a 0.22 μm membrane filter to adjust the total lipid concentration to 75 mM (75 μmol/mL). […] The solution was adjusted to pH 5 to 6 with 1 mol/L aqueous sodium hydroxide solution, warmed in a 65° C. water bath for 3 minutes, and ice-cooled. The liposome outer solution was replaced with 10 mM tartrate buffer solution/10% sucrose solution (pH 4) using a dialysis cassette (Slide-A-Lyzer G2 Dialysis Cassettes 20K MWCO, manufactured by Thermo Scientific), followed by filtration through a 0.22 μm membrane filter to adjust the concentration.
The solution formulation or liposome formulation was instantly administered intravenously to 7-week-old female BALB/c mice, and the blood was collected over time from the jugular vein without anesthesia up to 24 hours after administration for the solution formulation administration group and up to 72 hours after administration for the liposome formulation administration group. […] The plasma sample was centrifuged, and the concentrations of the test compound and Alvocidib in the obtained supernatant were determined by LC-MS/MS.

[7] = Compound concentration when encapsulated 5 mg/mL
[8] = Compound concentration when encapsulated 10 mg/mL

Encapsulated compound content per 50 μmol of lipid [1, 7]: 4.8 mg
Encapsulation efficiency [1, 7]: 96.2%
Encapsulation rate [1, 7]: 99.5%
Encapsulation rate [1, 8]: not encapsulated due to gelation
Encapsulation in liposomes ([1]; concentration 5 mg/mL): could be encapsulated in liposomes
Encapsulation in liposomes ([1]; concentration of 10 mg/mL): could not be encapsulated in liposomes
SMILES: CN1CC[C@H](c2c(O)cc(O)c3c(=O)cc(-c4ccccc4Cl)oc23)[C@H](O)C1.Cl [Alvocidib hydrochloride, 2-(2-chlorophenyl)-5,7-dihydroxy-8-[(3S,4R)-3-hydroxy-1-methylpiperidin-4-yl]-4H-chromen-4-one hydrochloride, reference compound]

SMILES: CN1CC[C@H](c2c(O)cc(O)c3c(=O)cc(-c4ccccc4Cl)oc23)[C@H](O)C1 [Alvocidib]
AUC [2]: 3.4 µmol·min/L

Production rate (%) of Alvocidib ([3]; 0 min): 6%
Residual rate (%) of test compound ([3]; 0 min): 100%
Production rate (%) of Alvocidib ([3]; 60 min): 48%
Residual rate (%) of test compound ([3]; 60 min): 48%
Production rate (%) of Alvocidib ([3]; 120 min): 66%
Residual rate (%) of test compound ([3]; 120 min): 33%
Production rate (%) of Alvocidib ([4]; 0 min): 5%
Residual rate (%) of test compound ([4]; 0 min): 100%
Production rate (%) of Alvocidib ([4]; 60 min): 12%
Residual rate (%) of test compound ([4]; 60 min): 89%
Production rate (%) of Alvocidib ([4]; 120 min): 15%
Residual rate (%) of test compound ([4]; 120 min): 89%
Production rate of Alvocidib ([5]; pH7.4, 0 hr): 4.3%
Residual rate ([5]; pH7.4, 0 hr): 93.7%
Conversion to Alvocidib at pH 7.4 ([5]; pH 7.4, 37° C., up to 3 hours): slowly converted to Alvocidib
Production rate of Alvocidib ([5]; pH7.4, 0.5 hr): 4.4%
Residual rate ([5]; pH7.4, 0.5 hr): 93.6%
Production rate of Alvocidib ([5]; pH7.4, 1 hr): 4.5%
Residual rate ([5]; pH7.4, 1 hr): 95.1%
Production rate of Alvocidib ([5]; pH7.4, 2 hr): 4.7%
Residual rate ([5]; pH7.4, 2 hr): 94.9%
Blood retention of liposome formulation compared with the corresponding solution formulation [6]: did not show improved blood retention
SMILES: CCC(=O)O[C@@H]1CN(C)CC[C@@H]1c1c(O)cc(O)c2c(=O)cc(-c3ccccc3Cl)oc12 [Comparative Example 6]

SMILES: CN1CC[C@H](c2c(OC(=O)N(C)C[C@@H]3COCCN3)cc(O)c3c(=O)cc(-c4ccccc4Cl)oc23)[C@H](O)C1 [Example 17, 2-(2-chlorophenyl)-5-hydroxy-8-[(3S,4R)-3-hydroxy-1-methylpiperidin-4-yl]-4-oxo-4H-1-benzopyran-7-yl methyl{[(3R)-morpholin-3-yl]methyl}carbamate]
Encapsulated compound content per 50 μmol of lipid [1, 8]: 2.4 mg
Encapsulation efficiency [1, 8]: 23.8%
Encapsulation rate [1, 8]: 26.5%
